Series [1] relates to Fischer or Sprague-Dawley rats. Particulars: cited from earlier work; for alopecia in young rats after treatment: starting from the head, around one to two weeks after treatment.
Series [2] has as its system patients. The following applies: cited from earlier work.
Series [3] has as its system Sprague-Dawley rats. Particulars: ip chemotherapy. As for the experimental part:
8-day old Sprague-Dawley rats are treated topically with liposome compositions as described in Example 1 containing a compound such as p21 to be screened for its effect on chemotherapy-induced alopecia. The liposome composition is provided at a concentration of 100 μg/ml in 1 mM β-mercaptoethanol, for 2 days. […] The rats are then treated with cyclophosphamide, CTX (35 mg/kg, ip once) with the combination of CTX (25 mg/kg)+doxorubicin, DOX (2.5 mg/kg), ip once per day for 3 days, respectively. One rat pup without chemotherapy was used as control.

The subject of series [4] is hair follicles. The experiment in a line: Liposome-mediated delivery of calcein dye to hair follicles in mouse skin histoculture. It counts as cell-based. As for the experimental part:
For the histoculture of skin, pieces of shaved outbred white-haired-mouse or nude-mouse skin, approximately 2×5×2 mm, were harvested under a dissection microscope and then histocultured on collagen-gel supported sponge as described by Li et al., Proc. Natl. Acad. Sci. USA 88:1908-1912, 1991. Histoculture was continued for about 24 hours prior to contacting the skin histoculture with the liposome preparation.
Liposomes were prepared by sonication of about 15 mg or 25 mg, preferably 25 mg, phosphatidylcholine (PC) emulsion in phosphate buffered saline (PBS) containing about 20 mg/ml of the fluorescent dye calcein. Liposomes were also prepared by entrapping NBD-phosphatidylcholine fluorescent dye using an emulsion with about 20 mg/ml of the NBD formulation. Liposomes were separated from the non-entrapped dye by gel-filtration on a Sepharose 4B column diluted with phosphate buffered saline. The amount of entrapped dye was measured spectrofluorometrically. Two types of PC were used: egg PC (EPC) and dipalmitoyl PC (DPPC). Due to their phase transition temperatures, liposomes made of DPPC are in a gel phase at about 37° C. while liposomes prepared from EPC are in a liquid-crystalline state.
Samples of the mouse skin histocultures were incubated for about 20 minutes with each of the liposomes and with a solution of “free” calcein dye at the same concentrations used in the liposome preparation. After the tissue samples were thoroughly washed with culture medium free of liposomes to remove excess liposome composition, the specimens were analyzed with a BioRad MRC 600 laser confocal microscope with a BHS filter block, which excites the tissue at 488 nm and passes the light emitted at 520 nm. These parameters are close to the excitation and emission maxima reported for calcein, Haugland, (Ed.) Molecular probes. Handbook of Fluorescent Probes and Research Chemicals, Molecular Probes, Inc., Eugene, (1989-1991 and 1992-1993). There is no autofluorescence of tissue when these emission and excitation wavelengths are used. […]

In series [5] the test system is hair follicles. The following applies: mouse, in vivo. As for the experimental part:
Liposomes were prepared essentially as described in Example 1. […] Thereafter, 0.5 ml of either calcein (10 mg/ml) or melanin (10 mg/ml) solution, respectively, were added to sonicated PC liposome composition, and further sonicated for 6 minutes, followed by freeze-thawing three times. […] A sample of about 250 microliters of the liposome composition entrapping calcein or melanin was applied directly to the dorsal skin on the mouse in an area of approximately 1.5 cm^2 using a sutured band-aid patch to immobilize the liposome composition onto the skin and to prevent evaporation. The liposome composition was re-applied every 1 hour for 6 hours, with the last application remaining for a total of 24 hours at which time the skin samples were taken by punch biopsy for analysis. For time course experiments, one mouse was used for each time period, with 6 punch biopsies taken from each mouse, at 0.5, 1, 2, 4, 6, 16 and 24 hours. […] Skin samples containing calcein were also analyzed by spectrofluorimetry to determine the effective concentration of a delivered beneficial compound into a selected tissue. […] The sonicated sample was then centrifuged for 10 minutes in a microcentrifuge at 14,000×g, and the resulting supernatant was measured by spectrofluorimetry at an excitation wavelength of 496 nm and an emission wavelength of 517 nm for detecting calcein. The concentration of calcein delivered into the skin tissue was determined from the spectrofluorometric readings by comparison to a standard curve. Skin samples containing melanin were also analyzed by is spectrophotometry to determine the effective concentration of a delivered beneficial compound into a selected tissue. […] The sonicated sample was then centrifuged for 10 minutes in a microcentrifuge at 14,000×g, and the resulting supernatant was measured by spectrophotometry at an absorption wavelength of 300 nm for detecting absorption by melanin. The concentration of melanin delivered into the skin tissue was determined from the spectrophotometric readings by comparison to a standard curve.

In series [6] the test system is hair follicles. Description: In vivo topical liposome-melanin coloring of regrowing hair in depilated white-haired mice. Details: species or system mouse. An excerpt:
3-4 week old white-haired mice were depilated by a mixture of bees wax and rosin gum. Topical application of liposome-melanin as described herein was started on day 6 after depilation. […] The skin surface was then washed with an excess of water and wipe-dried with a gauze pad. The out-growing hair was micro-photographed. The same concentration of naked melanin solution as entrapped into liposomes was used as the control. In another experiment, 3-4 week old white-haired mice were depilated by a mixture of bees wax and rosin gum. Topical application of liposome-melanin composition was started on day 10 after depilation. The melanin used in this experiment was from Biosource, SF, CA #MM-8A-1. The liposome-melanin composition was applied on the skin of mice twice per day for 3 days. The treated skin surface was then washed with an excess of water and wipe-dried with a gauze pad. The mice were then photographed. The same concentration of naked melanin solution as entrapped into liposomes was used as the control.

For series [7], the system named is hair follicles. Description: Liposome-mediated delivery of melanin to hair follicles in white-haired mouse skin histoculture. It counts as cell-based.
Protocol: To that end, liposomes were prepared by sonication. About 20 mg of egg phosphatidycholine was rotary evaporated with a vacuum drier from a chloroform solution to form a thin film on the walls of a 5 ml round-bottomed flask for about 1 hour. The dried thin film phospholipid was suspended in about 0.5 ml phosphate buffered saline (pH 7.4) on a vortex mixer and then sonicated with a Branson probe-type sonicator fitted with a microtip at power level 3 for about 8 minutes. Then 0.5 ml of a solution of melanin (10 mg/ml) was entrapped with the above suspension by sonication for about an additional 4 minutes. Liposomes were separated from the non-entrapped melanin by gel-filtration on a Sepharose 4B column equilibrated with phosphate buffered saline.
Pieces of outbred white-haired mouse skin derived from 1-2 weeks-old animals (about 2×5×2 mm each) were harvested under a dissection microscope. […] Liposome interaction with the skin was initiated after about 24 hours of histoculture. Mouse skin histocultures were incubated for about 12 hours with liposomes. […]
The skin histocultures were counter-stained with the dye 2′,7′-bis(2-carboxyethyl)-5 which is activated to fluorescence by nonspecific esterases present only in living cells. After the tissues were thoroughly washed, the specimens were analyzed with a Nikon fluorescence microscope equipped with a fluorescein cube. […]

Regarding `C=C1/C(=C\C=C2/CCC[C@]3(C)[C@@H]([C@H](C)CCCC(C)(C)O)CC[C@@H]23)C[C@@H](O)C[C@@H]1O` [1,25-dihydroxyvitamin D3], the “prevention of alopecia induced by cytoxan or etoposide” value in series [1] (topical) is listed as “prevents alopecia induced by cytoxan or etoposide”.

As for `O=P1(N(CCCl)CCCl)NCCCO1` (centres unmarked) [CTX, cyclophosphamide], the “patients with severe alopecia” value in series [2] (intravenous) is 75-90%. The “other toxic effects in rat pups” value in series [3] is “No other toxic effects were noted”. The “alopecia in rat pups” value in series [3] (noted at day-7) is “alopecia can be seen”. In addition, in series [1], the “alopecia in young rats after treatment” value is “develop alopecia”.

On to `Nc1ccn([C@@H]2O[C@H](CO)[C@@H](O)[C@@H]2O)c(=O)n1` [ara-C], for which the “alopecia in young rats after treatment” value in series [1] is reported as “develop alopecia”.

Regarding `COc1cccc2c1C(=O)c1c(O)c3c(c(O)c1C2=O)C[C@@](O)(C(=O)CO)C[C@@H]3O[C@H]1C[C@H](N)[C@H](O)[C@H](C)O1` [doxorubicin], the “hair loss in patients” value in series [2] (human, in vivo) was 85-100%. The “alopecia in young rats after treatment” value in series [1] is recorded as “develop alopecia”.

For `O=C(O)CN(CC(=O)O)Cc1cc2c(cc1O)Oc1cc(O)c(CN(CC(=O)O)CC(=O)O)cc1C21OC(=O)c2ccccc21` [free calcein, calcein], the “delivery of calcein into hair follicles by topical use” value in series [4] (histoculture topically treated 48 hours) is “rarely penetrated through the skin to stain the hair follicles”. Moreover, the “delivery of green fluorescent dye to hair follicles and shafts” value in series [4] (histoculture treated 48 hours, propidium iodide counterstain) is given as “very weak staining of a few hair follicles”. Besides, in series [4] (skin histoculture incubated about 20 minutes), the “delivery of fluorescent dye to hair follicles (confocal fluorescence microscopy)” value is reported as “relatively low fluorescence with no preferential staining of any particular skin structure”. Further, the “delivery of calcein into hair follicles and shafts (fluorescent microscopy)” value in series [5] was “trapped in the stratum corneum and did not enter the hair shafts or follicles”. In series [5] (outbred white-haired, 24 h), the “calcein delivered in the hair follicles” value is given as “about 1.4 ng/mm^2”.

Turning to melanin [naked melanin], the “coloring of out-growing hair” value in series [6] (topical once per day for 4 days from day 6 after depilation) is on record as “No hair coloring is observed”. For the same compound, in series [6] (topical twice per day for 3 days from day 10 after depilation), the “coloring of regrown hair” value is listed as “regrown hair remained white”. Further, the “localization of melanin in hair follicles and hair shafts (H&E paraffin section)” value in series [7] is “no “free” melanin can be observed either in hair shafts or the hair follicular cells”. Further, in series [5], the “melanin delivered to the hair follicles” value is “less than 2.0 ug/mm^2”.

The values above are taken from patent US7556825B2, “Method for promoting hair growth” (Anticancer, Inc., priority 1993, dated 2009).
